These results are taken from US11739098B2 (BRISTOL-MYERS SQUIBB COMPANY, priority 2017, dated 2023).

The IC50 is the concentration that gives 50% inhibition. A lower IC50 goes with greater potency in that assay.

Each structure is given as a SMILES string. Some results are limits rather than exact numbers.

Holding throughout (format): cell-based
The target of one assay is T1, human TLR7 (Homo sapiens, UniProt Q9NYK1).
T1 construct: host or cells: HEK-Blue cells (HEK293-derived reporter line)
T1 sequence (Q9NYK1 27-1049): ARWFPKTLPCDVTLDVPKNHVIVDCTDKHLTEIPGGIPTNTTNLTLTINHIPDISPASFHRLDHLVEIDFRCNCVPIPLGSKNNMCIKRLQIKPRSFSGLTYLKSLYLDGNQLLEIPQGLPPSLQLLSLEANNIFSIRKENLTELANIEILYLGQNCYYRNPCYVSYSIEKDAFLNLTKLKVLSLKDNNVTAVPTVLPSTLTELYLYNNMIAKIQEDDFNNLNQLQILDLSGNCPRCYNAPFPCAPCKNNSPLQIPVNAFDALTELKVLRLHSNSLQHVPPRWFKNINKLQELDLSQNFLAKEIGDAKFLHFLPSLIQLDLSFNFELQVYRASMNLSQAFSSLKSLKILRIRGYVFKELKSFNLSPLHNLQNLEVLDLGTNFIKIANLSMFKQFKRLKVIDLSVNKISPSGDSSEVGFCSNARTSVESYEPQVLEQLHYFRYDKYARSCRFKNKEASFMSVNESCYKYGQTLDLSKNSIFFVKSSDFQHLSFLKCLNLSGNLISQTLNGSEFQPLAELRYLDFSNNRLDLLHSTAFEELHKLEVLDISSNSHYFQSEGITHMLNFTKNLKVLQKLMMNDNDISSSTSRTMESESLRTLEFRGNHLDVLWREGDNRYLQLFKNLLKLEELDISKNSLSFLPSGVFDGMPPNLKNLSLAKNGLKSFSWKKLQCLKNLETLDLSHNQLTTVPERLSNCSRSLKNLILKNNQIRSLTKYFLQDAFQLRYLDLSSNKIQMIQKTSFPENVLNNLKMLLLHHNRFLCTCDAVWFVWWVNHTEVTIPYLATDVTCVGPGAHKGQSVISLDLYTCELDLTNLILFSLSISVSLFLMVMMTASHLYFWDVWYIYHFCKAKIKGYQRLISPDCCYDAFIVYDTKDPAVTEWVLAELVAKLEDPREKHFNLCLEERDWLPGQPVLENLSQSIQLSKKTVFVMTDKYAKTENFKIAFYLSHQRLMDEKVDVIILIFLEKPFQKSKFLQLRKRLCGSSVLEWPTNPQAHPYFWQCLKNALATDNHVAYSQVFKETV
The assay is described as follows: TLR7 inhibition reporter assay (HEK-Blue cells, SEAP reporter, gardiquimod stimulation). The following applies: HEK-Blue cells overexpressing human TLR7, SEAP reporter, gardiquimod 7.5 μM. The procedure, abridged:
(§1)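 Percent inhibition of agonist-induced SEAP secretion in HEK-Blue cells after 22 h at 37 °C. Stimuli: 7.5 μM gardiquimod, 15.9 μM R848, 5 nM ODN2006 for TLR7, TLR8 and TLR9, added after 30 min compound exposure over a 0.05 nM–50 μM range.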

The target of another assay is T2, human TLR8 (Homo sapiens, UniProt Q9NR97).
T2 construct: host or cells: HEK-Blue cells (HEK293-derived reporter line)
T2 sequence (Q9NR97 27-1041): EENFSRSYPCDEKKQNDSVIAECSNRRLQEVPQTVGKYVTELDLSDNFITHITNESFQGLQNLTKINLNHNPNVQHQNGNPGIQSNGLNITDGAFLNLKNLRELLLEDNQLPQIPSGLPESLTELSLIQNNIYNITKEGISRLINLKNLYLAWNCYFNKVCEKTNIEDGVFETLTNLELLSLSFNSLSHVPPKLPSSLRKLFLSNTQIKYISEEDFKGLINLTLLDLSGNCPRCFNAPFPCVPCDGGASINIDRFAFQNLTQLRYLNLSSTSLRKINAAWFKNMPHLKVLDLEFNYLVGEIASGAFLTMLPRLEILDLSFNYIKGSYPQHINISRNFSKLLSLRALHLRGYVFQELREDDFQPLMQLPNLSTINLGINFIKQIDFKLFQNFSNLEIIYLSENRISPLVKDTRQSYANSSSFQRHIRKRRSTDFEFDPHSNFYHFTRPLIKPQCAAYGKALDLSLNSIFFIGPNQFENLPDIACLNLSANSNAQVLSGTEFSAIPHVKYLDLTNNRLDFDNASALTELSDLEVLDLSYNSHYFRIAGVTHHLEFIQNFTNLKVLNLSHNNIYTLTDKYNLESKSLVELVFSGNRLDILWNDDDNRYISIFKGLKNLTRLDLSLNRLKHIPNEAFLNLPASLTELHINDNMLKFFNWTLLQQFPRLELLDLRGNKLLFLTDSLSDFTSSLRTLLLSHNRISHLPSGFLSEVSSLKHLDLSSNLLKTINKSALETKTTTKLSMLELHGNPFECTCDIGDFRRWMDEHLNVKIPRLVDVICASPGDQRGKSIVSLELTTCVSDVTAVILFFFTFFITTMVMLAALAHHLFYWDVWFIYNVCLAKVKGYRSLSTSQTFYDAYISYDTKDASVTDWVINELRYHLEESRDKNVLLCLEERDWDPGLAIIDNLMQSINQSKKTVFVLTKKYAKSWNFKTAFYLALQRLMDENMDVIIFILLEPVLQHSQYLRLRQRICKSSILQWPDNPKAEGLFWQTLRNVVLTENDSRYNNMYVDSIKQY
Put plainly: TLR8 inhibition reporter assay (HEK-Blue cells, SEAP reporter, R848 stimulation). The following applies: HEK-Blue cells overexpressing human TLR8, SEAP reporter, R848 15.9 μM. The procedure, abridged:
as §1
On the technique in general: In a reporter assay the amount or activity of a reporter protein is the signal.

For the next assay, the target named is T3, human TLR9 (Homo sapiens, UniProt Q9NR96).
T3 construct: host or cells: HEK-Blue cells (HEK293-derived reporter line)
T3 sequence (Q9NR96 26-1032): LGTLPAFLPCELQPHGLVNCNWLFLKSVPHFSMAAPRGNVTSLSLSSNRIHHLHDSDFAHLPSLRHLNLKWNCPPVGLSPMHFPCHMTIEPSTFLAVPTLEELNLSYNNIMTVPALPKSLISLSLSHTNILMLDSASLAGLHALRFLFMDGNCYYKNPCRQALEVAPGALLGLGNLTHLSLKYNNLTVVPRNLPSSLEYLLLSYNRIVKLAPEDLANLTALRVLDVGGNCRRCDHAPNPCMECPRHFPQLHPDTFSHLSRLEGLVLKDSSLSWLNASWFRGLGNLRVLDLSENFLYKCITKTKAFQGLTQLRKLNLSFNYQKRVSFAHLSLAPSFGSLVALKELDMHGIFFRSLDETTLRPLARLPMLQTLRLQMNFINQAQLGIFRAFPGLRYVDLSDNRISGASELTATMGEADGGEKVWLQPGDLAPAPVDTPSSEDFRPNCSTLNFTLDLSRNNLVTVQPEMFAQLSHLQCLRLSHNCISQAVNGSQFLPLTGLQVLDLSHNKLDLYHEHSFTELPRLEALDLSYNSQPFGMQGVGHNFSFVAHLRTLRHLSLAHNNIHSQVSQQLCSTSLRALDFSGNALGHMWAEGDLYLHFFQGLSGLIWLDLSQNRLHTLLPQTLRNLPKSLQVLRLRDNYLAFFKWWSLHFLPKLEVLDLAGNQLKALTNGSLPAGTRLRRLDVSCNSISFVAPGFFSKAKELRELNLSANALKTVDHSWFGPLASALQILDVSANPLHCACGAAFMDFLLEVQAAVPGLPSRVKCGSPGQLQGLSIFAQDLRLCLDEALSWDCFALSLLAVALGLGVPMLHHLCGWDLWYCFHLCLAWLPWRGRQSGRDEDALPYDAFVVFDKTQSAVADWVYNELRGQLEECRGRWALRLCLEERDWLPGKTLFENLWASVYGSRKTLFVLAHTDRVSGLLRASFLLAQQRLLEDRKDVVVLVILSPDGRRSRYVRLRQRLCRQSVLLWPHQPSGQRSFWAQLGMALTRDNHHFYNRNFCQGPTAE
The assay is described as follows: TLR9 inhibition reporter assay (HEK-Blue cells, SEAP reporter, ODN2006 stimulation). The settings on record: HEK-Blue cells overexpressing human TLR9, SEAP reporter, ODN2006 5 nM. The procedure, abridged:
as §1

In the case of `CC(C)c1c(-c2ccn3cnnc3c2)[nH]c2ccc(C3CCN(Cc4ncn(C)n4)CC3)cc12` [Example 880, 7-(3-isopropyl-5-(1-((1-methyl-1H-1,2,4-triazol-3-yl)methyl)piperidin-4-yl)-1H-indol-2-yl)-[1,2,4]triazolo[4,3-a]pyridine], the IC50 is 100 to 1000 nM against human TLR7, 100 to 1000 nM on human TLR8 and 1000 to 50000 nM against human TLR9.
`CC(C)c1c(-c2cnc3ncnn3c2)[nH]c2ccc(C3CCN(C4CCS(=O)(=O)CC4)CC3)cc12` [Example 798, 4-(4-(2-([1,2,4]triazolo[1,5-a]pyrimidin-6-yl)-3-isopropyl-1H-indol-5-yl)piperidin-1-yl)tetrahydro-2H-thiopyran 1,1-dioxide]: the IC50 was under 100 nM against human TLR7, under 100 nM against human TLR8 and 1000 to 50000 nM against human TLR9.
As for `CNCCN1CCC(c2ccc3[nH]c(-c4ccc5nccn5c4)c(C(C)C)c3c2)CC1` [Example 680, 2-(4-(2-(imidazo[1,2-a]pyridin-6-yl)-3-isopropyl-1H-indol-5-yl)piperidin-1-yl)-N-methylethan-1-amine], the concentration for half-maximal inhibition (IC50) on human TLR7 is under 100 nM; against human TLR8 it was under 100 nM; against human TLR9, 100 to 1000 nM.
As to `CC(C)c1c(-c2cn(C)c3ncccc23)[nH]c2ccc(C3CCN(C(=O)CN(C)C)CC3)cc12` [Example 463, 2-(dimethylamino)-1-(4-(3-isopropyl-2-(1-methyl-1H-pyrrolo[2,3-b]pyridin-3-yl)-1H-indol-5-yl)piperidin-1-yl)ethan-1-one], the IC50 on human TLR7 is under 100 nM; at human TLR8, under 100 nM; on human TLR9, 1000 to 50000 nM.
Turning to `Cc1c(-c2[nH]c3ccc(C4CCNCC4)cc3c2C(C)C)c2cccnc2n1C` [Example 37, 3-(3-isopropyl-5-(piperidin-4-yl)-1H-indol-2-yl)-1,2-dimethyl-1H-pyrrolo[2,3-b]pyridine], the IC50 against human TLR7 was under 100 nM; at human TLR8, under 100 nM; against human TLR9, 1000 to 50000 nM.
For the compound `CC(C)c1c(-c2ccnc3[nH]ncc23)[nH]c2ccc(C3CCN(C4CCCNC4)CC3)cc12` (stereo not drawn) [Example 653, 4-(5-([1,3′-bipiperidin]-4-yl)-3-isopropyl-1H-indol-2-yl)-1H-pyrazolo[3,4-b]pyridine], the IC50 against human TLR7 is under 100 nM; on human TLR8 it was under 100 nM; at human TLR9, 100 to 1000 nM.
Turning to `Cc1cn2cc(-c3[nH]c4ccc(C5CCN(C(=O)CC(C)O)CC5)cc4c3C(C)C)c(C)cc2n1` (stereo not drawn) [Example 596, 1-(4-(2-(2,7-dimethylimidazo[1,2-a]pyridin-6-yl)-3-isopropyl-1H-indol-5-yl)piperidin-1-yl)-3-hydroxybutan-1-one], the concentration for half-maximal inhibition (IC50) was under 100 nM at human TLR7, over 3130 nM against human TLR8 and 1000 to 50000 nM at human TLR9.
In the case of `Cc1cc(-c2[nH]c3ccc(C4CCN(CC#N)CC4)cc3c2C(C)C)cn2nnnc12` [Example 961, 2-(4-(3-isopropyl-2-(8-methyltetrazolo[1,5-a]pyridin-6-yl)-1H-indol-5-yl)piperidin-1-yl)acetonitrile], the IC50 was under 100 nM against human TLR7, under 100 nM against human TLR8 and 100 to 1000 nM against human TLR9.
For `CC(C)c1c(-c2ccc3nccn3c2)[nH]c2ccc(C3CCN(C(=O)CN(C)C)CC3)cc12` [Example 572, 2-(dimethylamino)-1-(4-(2-(imidazo[1,2-a]pyridin-6-yl)-3-isopropyl-1H-indol-5-yl)piperidin-1-yl)ethan-1-one], the IC50 is under 100 nM at human TLR7, 100 to 1000 nM against human TLR8 and 1000 to 50000 nM against human TLR9.
On to `CNC(=O)CN1CCC(c2ccc3[nH]c(-c4cc(CO)c5nccn5c4)c(C(C)C)c3c2)CC1` [Example 341, 2-(4-(2-(8-(hydroxymethyl)-6-imidazo[1,2-a]pyridinyl-6-yl)-3-isopropyl-1H-indol-5-yl)piperidin-1-yl)-N-methylacetamide], for which the IC50 on human TLR7 is under 100 nM; against human TLR8, under 100 nM; against human TLR9 it was 100 to 1000 nM.
As for `Cc1c(-c2[nH]c3ccc(C4CCN(CC(=O)N(C)C)CC4)cc3c2C(C)C)cn2ccnc2c1C` [Example 412, 2-(4-(2-(7,8-dimethylimidazo[1,2-a]pyridin-6-yl)-3-isopropyl-1H-indol-5-yl)piperidin-1-yl)-N,N-dimethylacetamide], the results for the IC50 against human TLR7, against human TLR8 and against human TLR9 were under 100 nM, under 100 nM and 100 to 1000 nM, respectively.
As for `CCC(C)NCC(=O)N1CCC(c2ccc3[nH]c(-c4ccnc5[nH]ncc45)c(C(C)C)c3c2)CC1` (stereo not drawn) [Example 583, 2-(sec-butylamino)-1-(4-(3-isopropyl-2-(1H-pyrazolo[3,4-b]pyridin-4-yl)-1H-indol-5-yl)piperidin-1-yl)ethan-1-one], the results for the IC50 against human TLR7, against human TLR8 and against human TLR9 were under 100 nM, under 100 nM and 1000 to 50000 nM, respectively.
`Cc1nc2cc(-c3[nH]c4ccc(C5CCNCC5)cc4c3C(C)C)cc(C)c2o1` [Example 92, 5-(3-isopropyl-5-(piperidin-4-yl)-1H-indol-2-yl)-2,7-dimethylbenzo[d]oxazole]: the IC50 against human TLR7 is under 100 nM; on human TLR8, 100 to 1000 nM; at human TLR9, 1000 to 50000 nM.
